Test results as given in patent US20030095962A1, “Chimeric cell-surface receptors that undergo antigen-induced association” (priority 1997, published 2003).

How the values were obtained:
[1] = tested on: Ba/HEL cells (Ba/F3 cells expressing VH/VL-EpoR chimeric receptors); assay: Antigen-dependent growth of Ba/HEL cell clones (viable cell count, trypan blue); type: cell-based, mouse
Method: FIG. 3 is a graph showing the relation between the concentrations of antigen n a culture medium and cell growth rates. Clone G8 was obtained by transforming Ba/F3 cells with the VH/VL EpoR vector constructs and growing in the presence of antigen. In this experiment, separate cultures of Clone G8 was cultured with different constant amounts of the antigen HEL over a 5-day period. Cell proliferation was dose-dependent, and was inducible up to at least about 5 times the rate by including antigen in the culture medium.
The clones of Ba/HEL cells were cultured with various concentrations of HEL to measure the change of the cell number over time. HEL was added in the concentrations of 0, 0.005, 0.05 and 0.5 μg/ml to the RPMI 1640 medium containing 10% FBS, seeded Ba/HEL clones with the initial concentration of 5×10^3 ml, and measured the change in the number of viable cells over time by the cell count method using trypan blue.
Cell growth was conspicuously accelerated with as low as 5 ng/ml antigen. This concentration agrees with the detectable antigen concentration in the immunoassay based on VH/VL association of HyHEL-10 Fv (Ueda et al., Nature Biotech, 14, 1714-1718, 1996). Accordingly, antigen concentration can be measured, that is, immunoassay can be performed using the level of growth of this cell as an index.

Ba/F3 cells = assay: Growth of Ba/F3 cells without expression vectors in HEL-containing medium without IL-3; type: cell-based, mouse; settings: RPMI 1640, 10 μg/ml HEL, 10% FBS, no expression vectors introduced
Method: Two plasmids, PME-VHER and pME-VLER, produced in Example 1, were introduced into the cell line Ba/F3 which is derived from the interleukin-3 (IL-3) dependent mouse pro-B cells, by using electroporation method. The Ba/F3 cells (2×10^6) in the logarithmic growth period and 5 μg each of above plasmid DNAs linearized with the restriction enzyme KpnI were suspended in 100 μl HBS (Hanks' Buffered Saline: Nissui Pharmacy). Rectangular pulses, 500 volts/150 μsec, were applied 10 times using a gene introduction electric pulse generator (electrodes of 4 mm intervals, Bio-Rad). The cells was kept at room temperatures for five minutes, diluted in 4 ml RPMI 1640 culture media (Nissui Pharmacy) containing 400 μg/ml G418 (Sigma), 8 ng/ml mouse IL-3 (Genzyme) and 10% fetal bovine serum (FBS, Gibco), added into 24-well plates 1 ml each, and cultured for two weeks at 37° C. in the 5% CO2 humidified atmosphere. The resultant colonies were mixed and cultured for another three days in the same media 100 μl cell suspensions were diluted in 2 ml RPMI 1640 medium containing 10 μg/ml hen egg lysozyme (HEL, Seikagaku) and 10% FBS (Gibco) and were subcultured. The Ba/F3 cell line is known to be released from IL-3 dependency by the ectopic expression of the EPO receptor when EPO is added to the medium. […]

## hen egg lysozyme [HEL]
[1]; Ba/HEL clone G8, similar results for all clones inspected
  Cell growth in relation to the HEL concentration in the medium: cell growth depends on the concentration of HEL
[1]; Ba/HEL clones, RPMI 1640 with 10% FBS, HEL 0, 0.005, 0.05 and 0.5 μg/ml
  Antigen concentration at which cell growth was conspicuously accelerated: ≤ 5 ng/mL
[1]; Clone G8, different constant amounts of HEL over a 5-day period
  Cell proliferation inducible by including antigen in the culture medium: at least 5 times the rate
Ba/F3 cells
  Growth of cells in HEL-containing medium: did not grow
